Among the data in PubChem BioAssay (NCI) are TGI values, retold here.

What all share (experiment): inhibition of tumour cell growth, NCI panel, 48 h
Test [1] deals with 786-0 renal.
Test [2] has as its system COLO 205 colon.
For test [3], the system named is EKVX NSCLC.
Test [4] deals with HCC-2998 colon.
For test [5], the system named is HOP-62 NSCLC.
The subject of test [6] is HS 578T breast.
Test [7] relates to HT29 colon.
Test [8] deals with KM12 colon.
Test [9] relates to LOX IMVI melanoma.
Test [10] deals with MCF7 breast.
Test [11] deals with MOLT-4 leukemia.
For test [12], the system named is NCI-H226 lung.
Test [13] has as its system OVCAR-8 ovarian.
In test [14] the test system is RXF 393 renal.
Test [15] concerns SF-295 CNS.
In test [16] the test system is SF-539 CNS.
Test [17] concerns SNB-19 CNS.
For test [18], the system named is TK-10 renal.
For test [19], the system named is U251 CNS.
Test [20] relates to UACC-62 melanoma.

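A five-concentration, 48-hour dose response in 96-well plates underlies each endpoint, interpolated linearly between surrounding concentrations. At the TGI there is no net growth.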 Where a SMILES comes first, the peptide text is derived from it. [ ]: non-standard residue; d: D form. The star is where a group is joined. X28 = COC1=CC(=O)N(C(=O)[C@@H](O*)C(C)C)[C@H]1Cc1ccccc1; NMeV = CN[C@H](C(=O)O)C(C)C; Hexanoyl = CCCCCC(=O)*

For the compound `c1ccc([P+](Cc2ccc(C[P+](c3ccccc3)(c3ccccc3)c3ccccc3)cc2)(c2ccccc2)c2ccccc2)cc1`, the TGI in test [1], in test [2], in test [3], in test [4], in test [5] and in test [6] was over 100 µM throughout. For the same compound, the TGI in test [7] is over 100 µM; in [8], over 100 µM; in test [9], 50 µM; in test [10], over 100 µM; in test [11] it was over 100 µM; in test [12] it was over 100 µM. In addition, the TGI in test [13], in test [14], in test [15], in test [16], in test [17] and in test [18] was over 100 µM in each case. Besides, the TGI in test [19] and in test [20] was over 100 µM in each case.
For the compound `O=C(/C=C/c1ccccc1)CCN1CCN(CCC(=O)/C=C/c2ccccc2)CC1`, the TGI in [1] was determined as 18.9 µM; in test [2], 31.1 µM; in test [3], 35.2 µM; in [4] it was 30.4 µM; in test [5], 43.9 µM; in [6] it was 37.2 µM. The TGI came out at 30.4 µM in test [7]; 17 µM in test [8]; 5.88 µM in test [9]; 20.7 µM in test [10]; 85.5 µM in test [11]; 64.4 µM in test [12]. The TGI in test [13] was determined as 31.4 µM; in test [14], 28.8 µM; in [15], 31.2 µM; in test [16], 28.8 µM; in test [17], 32.6 µM; in [18], 30 µM. For the same compound, the results for the TGI in [19] and in [20] were 30.3 µM and 30.2 µM, respectively.
On to `O=C(CCC(NC(=O)OCc1ccccc1)C(=O)OCc1ccccc1)Nc1ccc(OCc2ccccc2)cc1` (stereo not given), for which the TGI in test [1] was 17.4 µM; in test [2], over 31.6 µM; in [3], over 31.6 µM; in [4], over 31.6 µM; in [5] it was over 100 µM; in [6], over 31.6 µM. Further, the TGI in test [7] is over 31.6 µM; in [8], over 31.6 µM; in [9], over 31.6 µM; in [10], 19.9 µM; in [11] it was over 31.6 µM; in [12], over 31.6 µM. For the same compound, the TGI in [13] is 20.2 µM; in test [14], over 31.6 µM; in [15], over 31.6 µM; in test [16], over 31.6 µM; in test [17], over 31.6 µM; in test [18], over 31.6 µM. Also, the TGI in [19] is 28 µM; in test [20], over 31.6 µM.
In the case of `O=[N+]([O-])C(C(Cl)=C(Cl)Cl)=C(N(Cc1ccccc1)Cc1ccccc1)N(Cc1ccccc1)Cc1ccccc1`, the TGI was over 100 µM in test [1]; over 100 µM in test [2]; over 100 µM in [3]; 55.4 µM in test [4]; over 100 µM in test [5]; over 100 µM in test [6]. Moreover, the TGI in test [7], in test [8], in test [9], in [10], in test [11] and in [12] was over 100 µM throughout. Further, the TGI in [13] was over 100 µM; in test [14], over 100 µM; in [15] it was over 100 µM; in [16] it was 76.6 µM; in [17], over 100 µM; in test [18], over 100 µM. In addition, the TGI in [19] and in test [20] was over 100 µM throughout.
Regarding `COC(=O)c1ccccc1CC1Cc2ccc3c(c2C1=O)CCC3` (stereo not given), the TGI in test [1], in test [2], in test [3], in test [4], in test [5] and in test [6] was over 100 µM in each case. Also, the TGI in test [7] was over 100 µM; in [8] it was over 100 µM; in test [9], over 100 µM; in [10] it was 90.3 µM; in test [11], over 100 µM; in [12] it was over 100 µM. In addition, the TGI in [13], in [14], in test [15], in [16], in test [17] and in [18] was over 100 µM in each case. Further, the TGI in test [19] and in test [20] was over 100 µM in each case.
Take `C=CCOc1ccc(/C(N=Nc2ccc([N+](=O)[O-])cc2)=N/NC(=O)c2ccccc2)cc1OC`: the TGI in test [1], in [2], in test [3], in test [4], in test [5] and in test [6] was over 100 µM each time. The TGI in test [7], in test [8], in [9], in test [10], in test [11] and in test [12] was over 100 µM throughout. Further, the TGI in [13], in [14], in [15], in test [16], in [17] and in [18] was over 100 µM throughout. Also, the TGI in test [19] and in [20] was over 100 µM throughout.
Consider `CSc1ncc2c(C#N)c3sc4ccccc4n3c(=O)c2n1`, for which the TGI in test [1] is over 100 µM; in test [2], over 100 µM; in [3] it was over 100 µM; in test [4] it was over 100 µM; in test [5], over 100 µM; in test [6] it was 51.3 µM. The TGI in [7], in test [8], in test [9], in test [10], in [11] and in [12] was over 100 µM each time. In addition, the TGI in test [13], in test [14], in [15], in test [16], in test [17] and in [18] was over 100 µM throughout. Moreover, the TGI in test [19] and in test [20] was over 100 µM each time.
As to `O=C1c2ccccc2S(=O)(=O)c2c1cccc2[N+](=O)[O-]`, the TGI was 3.13 µM in test [1]; 2.77 µM in [2]; over 8.6 µM in test [3]; over 10 µM in [4]; over 10 µM in test [5]; over 10 µM in [6]. In addition, the TGI was over 7.01 µM in test [7]; 5.08 µM in [8]; 5.21 µM in [9]; 3.31 µM in test [10]; 6.04 µM in test [11]; over 10 µM in test [12]. Besides, the TGI is 5.46 µM in test [13]; 8.44 µM in test [14]; over 10 µM in test [15]; 4.34 µM in test [16]; over 10 µM in test [17]; over 10 µM in test [18]. Moreover, the results for the TGI in test [19] and in [20] were over 8.28 µM and 3.48 µM, respectively.
Turning to `O=c1c2nn3c(=O)n(-c4ccccc4)c(=O)c3nn2c(=O)n1-c1ccccc1`, the TGI in test [1], in test [2], in [3], in test [4], in test [5] and in test [6] was over 100 µM in each case. Further, the TGI in [7], in [8], in test [9], in test [10], in test [11] and in [12] was over 100 µM throughout. For the same compound, the TGI in test [13], in test [14], in [15], in test [16], in test [17] and in [18] was over 100 µM in each case. Moreover, the TGI in test [19] and in [20] was over 100 µM in each case.
Consider `NC(=O)N=C(N(Cc1ccccc1)Cc1ccccc1)N(Cc1ccccc1)Cc1ccccc1`, for which the TGI in test [1] was over 100 µM; in [3], over 100 µM; in [4] it was over 100 µM; in [5], over 65.8 µM; in test [6] it was over 100 µM; in test [7] it was over 100 µM. The TGI in test [8], in [9], in test [10], in [11], in [12] and in test [13] was over 100 µM in each case. Also, the TGI in test [14] is over 100 µM; in test [15], 35.1 µM; in [16], over 100 µM; in test [17], over 100 µM; in test [18], over 100 µM; in test [19], over 63.7 µM. Also, the TGI in [20] was over 100 µM.
As for `NC(=O)NNc1nc2ccccc2c(=O)n1NC(=O)C(=O)Nc1ccc(Cl)cc1Cl`, the TGI in [1], in [3], in test [4], in [5], in test [6] and in test [7] was over 100 µM in each case. The TGI in test [8], in test [9], in [10], in [11], in [12] and in test [13] was over 100 µM throughout. Besides, the TGI in [14], in [15], in test [16], in test [17], in test [18] and in test [19] was over 100 µM in each case. In test [20], this compound had a TGI of over 100 µM.
Take `CCCCCC(=O)N[C@H](C(=O)N[C@H](C(=O)N(C)[C@H](C(=O)N1CCC[C@H]1C(=O)N1CCC[C@H]1C(=O)O[C@H](C(=O)N1C(=O)C=C(OC)[C@@H]1Cc1ccccc1)C(C)C)C(C)C)C(C)C)C(C)C` (Hexanoyl-VV[NMeV]PP-X28): the TGI in test [1], in test [2], in [3], in test [4], in test [5] and in [6] was over 100 µM each time. The TGI in test [7], in test [8], in test [9], in test [10], in test [11] and in [12] was over 100 µM each time. Moreover, the TGI is over 100 µM in test [13]; 62.7 µM in test [14]; over 100 µM in [15]; over 100 µM in [16]; over 100 µM in test [18]; over 100 µM in test [19]. Besides, the TGI in [20] is over 100 µM.
As to `C/C(=N/NC(=S)Nc1ccc([N+](=O)[O-])cc1)c1cccc(/C(C)=N\NC(=S)Nc2ccc([N+](=O)[O-])cc2)n1`, the TGI was 11.6 µM in test [1]; 15.7 µM in test [2]; 12.8 µM in test [3]; 21.5 µM in test [4]; 11.1 µM in test [5]; over 81.7 µM in test [6]. In addition, the TGI was 16 µM in [7]; over 35.7 µM in test [8]; 12.7 µM in test [9]; 3.86 µM in [10]; 1.84 µM in test [12]; 4.73 µM in test [14]. The TGI in test [15] amounted to 8.33 µM; in [16], 2.28 µM; in test [17], 17.8 µM; in [18] it was 15.7 µM; in [19], 14.6 µM; in [20] it was 2.87 µM.
